Measurements reported in patent US20230023559A1, “ARYLMETHYLENE HETEROCYCLIC COMPOUNDS AS KV1.3 POTASSIUM SHAKER CHANNEL BLOCKERS” (D. E. Shaw Research, LLC, priority 2019, published 2023).

Legend:
Kv1.3 potassium channel = biological target: T1, Kv1.3 potassium channel (Homo sapiens, UniProt P22001); assay: Kv1.3 potassium channel blocker activity, automated whole-cell patch clamp (Patchliner); assay type: cell-based; conditions: CHO-K1 cells stably expressing Kv1.3; whole cell current inhibition; read-out: Kv1.3_IC50
T1 construct: expressed in transfected cells
Outline: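 Peak-current block was recorded on stable Kv1.3 CHO-K1 cells by automated patch clamp, stepping from a −90 mV holding potential to +40 mV for 100 ms at 0.1 Hz with 10 s breaks between trains. Online P/4 leak subtraction, 10 kHz sampling; compound exposure under 10 s per train.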

hERG channel = hERG channel (Homo sapiens, UniProt Q12809); assay: hERG electrophysiology, automated whole-cell patch clamp (Patchliner)
Chain of hERG channel (Q12809 whole entry): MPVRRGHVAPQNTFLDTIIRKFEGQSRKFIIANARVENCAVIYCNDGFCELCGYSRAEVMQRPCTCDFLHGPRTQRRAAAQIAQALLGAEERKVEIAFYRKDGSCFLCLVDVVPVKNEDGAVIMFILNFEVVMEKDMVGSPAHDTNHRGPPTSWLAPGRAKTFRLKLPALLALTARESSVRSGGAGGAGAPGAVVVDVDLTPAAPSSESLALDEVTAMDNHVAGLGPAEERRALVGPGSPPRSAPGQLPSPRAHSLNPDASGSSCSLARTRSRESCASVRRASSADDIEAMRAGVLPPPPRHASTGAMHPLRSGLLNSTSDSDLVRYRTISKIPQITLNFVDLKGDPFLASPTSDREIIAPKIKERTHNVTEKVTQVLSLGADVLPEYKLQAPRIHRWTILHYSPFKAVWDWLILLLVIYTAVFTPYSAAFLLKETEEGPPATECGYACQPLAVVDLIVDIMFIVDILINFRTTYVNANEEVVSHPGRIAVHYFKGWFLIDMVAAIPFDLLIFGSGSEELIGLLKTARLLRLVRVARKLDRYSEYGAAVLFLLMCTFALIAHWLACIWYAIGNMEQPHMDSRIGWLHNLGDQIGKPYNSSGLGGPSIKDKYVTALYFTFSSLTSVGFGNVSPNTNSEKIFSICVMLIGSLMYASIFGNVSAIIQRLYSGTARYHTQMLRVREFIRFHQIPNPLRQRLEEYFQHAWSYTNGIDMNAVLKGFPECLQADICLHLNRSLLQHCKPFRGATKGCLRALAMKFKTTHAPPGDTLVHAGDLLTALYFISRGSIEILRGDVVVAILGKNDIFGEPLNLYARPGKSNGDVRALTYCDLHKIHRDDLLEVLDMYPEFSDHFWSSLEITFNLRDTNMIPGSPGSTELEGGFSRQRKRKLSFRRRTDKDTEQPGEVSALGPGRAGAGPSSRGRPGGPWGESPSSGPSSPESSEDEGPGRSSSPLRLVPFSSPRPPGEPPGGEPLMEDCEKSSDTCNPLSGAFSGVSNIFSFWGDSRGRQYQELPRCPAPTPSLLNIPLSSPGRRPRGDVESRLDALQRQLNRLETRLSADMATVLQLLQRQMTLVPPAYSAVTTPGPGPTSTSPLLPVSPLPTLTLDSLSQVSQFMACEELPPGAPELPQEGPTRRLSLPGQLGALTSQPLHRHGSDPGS

T1 sequence (P22001 whole entry): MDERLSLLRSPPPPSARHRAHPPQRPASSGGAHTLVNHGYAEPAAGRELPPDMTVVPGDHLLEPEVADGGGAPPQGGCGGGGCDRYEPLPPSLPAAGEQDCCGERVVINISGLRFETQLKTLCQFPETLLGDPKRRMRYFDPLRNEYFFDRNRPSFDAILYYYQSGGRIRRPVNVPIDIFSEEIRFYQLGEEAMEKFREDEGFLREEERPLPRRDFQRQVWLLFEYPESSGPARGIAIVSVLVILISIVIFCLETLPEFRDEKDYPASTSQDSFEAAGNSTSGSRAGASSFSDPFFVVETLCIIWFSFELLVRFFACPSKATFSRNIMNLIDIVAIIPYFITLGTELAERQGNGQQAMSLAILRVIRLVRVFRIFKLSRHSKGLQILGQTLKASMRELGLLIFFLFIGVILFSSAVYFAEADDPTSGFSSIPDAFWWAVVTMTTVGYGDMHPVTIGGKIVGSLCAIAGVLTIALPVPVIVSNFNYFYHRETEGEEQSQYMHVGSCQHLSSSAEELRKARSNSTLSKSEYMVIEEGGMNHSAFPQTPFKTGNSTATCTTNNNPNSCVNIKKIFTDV

Structure (SMILES) | IC50 (Kv1.3 potassium channel) | IC50 (hERG channel)
N[C@@H](c1cc(Cl)c(Cl)cc1O)C1CCN(C(=O)C2CC(O)(CO)C2)CC1 (stereo partly drawn) [Compound 213, 2-[(R)-amino([1-[3-hydroxy-3-(hydroxymethyl)cyclobutane-carbonyl]piperidin-4-yl])methyl]-4,5-dichlorophenol trifluoroacetic acid] | < 0.5 µM | > 30 µM
N[C@@H](c1cc(Cl)c(Cl)cc1O)C1CCN(C(=O)C2CNC(=O)CO2)CC1 (stereo partly drawn) [Compound 231, 6-[4-[(R)-amino(4,5-dichloro-2-hydroxyphenyl)methyl]piperidine-1-carbonyl]morpholin-3-one] | < 0.5 µM | > 30 µM
CCc1cc(O)c([C@H](N)C2CCN(C(=O)[C@H](O)CO)CC2)cc1Cl [Compound 292, (2R)-1-[4-[(R)-amino(5-chloro-4-ethyl-2-hydroxyphenyl)methyl]piperidin-1-yl]-2,3-dihydroxypropan-1-one Trifluoroacetic Acid] | < 0.5 µM | > 30 µM
N[C@@H](c1cc(Cl)c(Cl)cc1O)C1CCN(C(=O)N2CC(O)C2)CC1 [Compound 148, 1-[4-[(R)-amino(4,5-dichloro-2-hydroxyphenyl)methyl]piperidine-1-carbonyl]azetidin-3-ol Trifluoroacetic Acid] | < 0.5 µM | > 30 µM
CC(C)(O)CN1CCC(C(N)c2cc(Cl)c(Cl)cc2O)CC1 (stereo not drawn) [Compound 56, 2-[amino[1-(2-hydroxy-2-methylpropyl)piperidin-4-yl]methyl]-4,5-dichlorophenol Trifluoroacetic Acid] | < 10 µM | < 30 µM
CN(C)C(=O)N1CCC(C(N)c2cc(Cl)c(Cl)cc2O)CC1 (stereo not drawn) [Compound 46, 4-(amino(4,5-dichloro-2-hydroxyphenyl)methyl)-N,N-dimethylpiperidine-1-carboxamide] | < 10 µM | < 30 µM
Cc1cc(O)c([C@H](N)C2CCN(C(=O)c3ccc(CO)nc3)CC2)cc1Cl [Compound 248, 2-[(R)-amino([1-[6-(hydroxymethyl)pyridine-3-carbonyl]piperidin-4-yl])methyl]-4-chloro-5-methylphenol] | < 0.5 µM | > 30 µM
N[C@@H](c1cc(Cl)c(Cl)cc1O)C1CCN(C(=O)c2cccc(=O)[nH]2)CC1 [Compound 178, (R)-6-(4-(amino(4,5-dichloro-2-hydroxyphenyl)methyl)piperidine-1-carbonyl) pyridin-2(1H)-one formic acid] | < 0.5 µM | > 30 µM
Cc1cc(O)c([C@H](N)C2CCN(C(=O)C3CNC3)CC2)cc1Cl [Compound 235, 2-[(R)-amino[1-(azetidine-3-carbonyl)piperidin-4-yl]methyl]-4-chloro-5-methylphenol trifluoroacetic acid] | < 0.5 µM | > 30 µM
N[C@@H](CO)C(=O)N1CCC([C@@H](N)c2cc(Cl)c(Cl)cc2O)CC1 [Compound 167, (2S)-2-amino-1-[4-[(R)-amino(4,5-dichloro-2-hydroxyphenyl)methyl]piperidin-1-yl]-3-hydroxypropan-1-one] | < 0.5 µM | > 30 µM
CNC(c1cc(Cl)c(Cl)cc1O)C1CCNCC1 (stereo not drawn) [Compound 31, 4,5-dichloro-2-[(methylamino)(piperidin-4-yl)methyl]phenol Trifluoroacetic Acid] | < 10 µM | > 30 µM
C[C@H]1CN(C(=O)[C@H](O)CO)CC[C@H]1[C@@H](N)c1cc(Cl)c(Cl)cc1O (single isomer, unassigned; isomer 2) [Compound 332] | < 0.5 µM | > 30 µM
N[C@@H](c1cc(Cl)c(Cl)cc1O)C1CCN(C(=O)c2cn[nH]c2)CC1 [Compound 131, 2-[(R)-amino[1-(1H-pyrazole-4-carbonyl)piperidin-4-yl]methyl]-4,5-dichlorophenol trifluoroacetic acid] | < 0.5 µM | > 30 µM
N[C@@H](c1cc(Cl)c(Cl)cc1O)C1CCN(C(=O)C2(O)CNC2)CC1 [Compound 219, 3-[4-[(R)-amino(4,5-dichloro-2-hydroxyphenyl)methyl]piperidine-1-carbonyl]azetidin-3-ol Trifluoroacetic Acid] | < 0.5 µM | > 30 µM
CC(C)(CO)C(=O)N1CCC([C@@H](N)c2cc(Cl)c(Cl)cc2O)CC1 [Compound 142, 1-[4-[(R)-amino(4,5-dichloro-2-hydroxyphenyl)methyl]piperidin-1-yl]-3-hydroxy-2,2-dimethylpropan-1-one trifluoroacetic acid] | < 10 µM | < 30 µM
CC(=O)N1CCC(C(N)c2cc(Cl)c(Cl)cc2O)CC1 (stereo not drawn) [Compound 9, 1-(4-(amino(4,5-dichloro-2-hydroxyphenyl)methyl)piperidin-1-yl)ethanone] | < 10 µM | > 30 µM
Nc1cc(C(=O)N2CCC([C@@H](N)c3cc(Cl)c(Cl)cc3O)CC2)ccn1 [Compound 301, 2-[(R)-amino[1-(2-aminopyridine-4-carbonyl)piperidin-4-yl]methyl]-4,5-dichlorophenol trifluoroacetic acid] | < 0.5 µM | > 30 µM

Structure (SMILES) | IC50 (Kv1.3 potassium channel) | IC50 (hERG channel)
N[C@@H](c1cc(Cl)c(Cl)cc1O)C1CCN(C(=O)[C@@H]2CNC(=O)C2)CC1 (single isomer, unassigned; isomer 1) [Compound 296] | < 0.5 µM | > 30 µM
NC(c1cc(Cl)c(Cl)cc1O)C1CCN(C(=O)C2COC2)CC1 (stereo not drawn) [Compound 67, 2-[amino[1-(oxetane-3-carbonyl)piperidin-4-yl]methyl]-4,5-dichlorophenol] | < 0.5 µM | < 30 µM
N[C@@H](c1cc(Cl)c(Cl)cc1O)C1CCN(c2cn[nH]c2)CC1 [Compound 149, 2-[(R)-amino[1-(1H-pyrazol-4-yl)piperidin-4-yl]methyl]-4,5-dichlorophenol Trifluoroacetic Acid] | < 10 µM | < 30 µM
Cc1cc(O)c([C@H](N)C2CCN(C(=O)C3CCS(=O)(=O)CC3)CC2)cc1Cl [Compound 247, (R)-(4-(amino(5-chloro-2-hydroxy-4-methylphenyl)methyl)piperidin-1-yl)(1,1-dioxidotetrahydro-2H-thiopyran-4-yl)methanone trifluoroacetic acid] | < 0.5 µM | > 30 µM
Cc1cc(O)c([C@H](N)C2CCN(C(=O)c3c[nH]c(=O)c(CO)c3)CC2)cc1Cl [Compound 207, (R)-5-(4-(amino (5-chloro-2-hydroxy-4-methylphenyl)methyl)piperidine-1-carbonyl)-3-(hydroxymethyl) pyridin-2(1H)-one] | < 0.5 µM | > 30 µM
CC1(O)CC(C(=O)N2CCC([C@@H](N)c3cc(Cl)c(Cl)cc3O)CC2)C1 (stereo partly drawn) [Compound 163, 2-[(R)-amino[1-(3-hydroxy-3-methylcyclo-butanecarbonyl)piperidin-4-yl]methyl]-4,5-dichlorophenol] | < 10 µM | > 30 µM
N[C@@H](c1cc(Cl)c(Cl)cc1O)C1CCN(C(=O)C2COCCO2)CC1 (stereo partly drawn) [Compound 137, 2-[(R)-amino[1-(1,4-dioxane-2-carbonyl)piperidin-4-yl]methyl]-4,5-dichlorophenol trifluoroacetic acid] | < 0.5 µM | < 30 µM
N[C@@H](c1cc(Cl)c(Cl)cc1O)C1CCN(C(=O)[C@@H]2COCCN2)CC1 [Compound 195, (4-((R)-amino(4,5-dichloro-2-hydroxyphenyl)methyl)piperidin-1-yl)((S)-morpholin-3-yl)methanone] | < 0.5 µM | > 30 µM
N[C@@H](c1cc(Cl)c(Cl)cc1O)C1CCN(C(=O)[C@@H]2CCC(=O)N2)CC1 [Compound 166, (5S)-5-[4-[(R)-amino(4,5-dichloro-2-hydroxyphenyl)methyl]piperidine-1-carbonyl] pyrrolidin-2-one trifluoroacetic acid] | < 10 µM | > 30 µM
N[C@@H](c1cc(Cl)c(Cl)cc1O)C1CCN(S(=O)(=O)c2cn[nH]c2)CC1 [Compound 158, 2-[(R)-amino[1-(1H-pyrazole-4-sulfonyl)piperidin-4-yl]methyl]-4,5-dichlorophenol Trifluoroacetic Acid] | < 10 µM | < 30 µM
Cc1cc(O)c([C@H](N)C2CCN(C(=O)[C@H](O)CO)CC2)c(F)c1Cl [Compound 244, (2R)-1-[4-[(R)-amino(3-chloro-2-fluoro-6-hydroxy-4-methylphenyl)methyl]piperidin-1-yl]-2,3-dihydroxypropan-1-one] | < 0.5 µM | > 30 µM
Cc1cc(O)c([C@H](N)C2CCN(C(=O)c3c[nH]c(=O)cc3Cl)CC2)cc1Cl [Compound 245, 5-[4-[(R)-amino (5-chloro-2-hydroxy-4-methylphenyl)methyl]piperidine-1-carbonyl]-4-chloro-1H-pyridin-2-one trifluoroacetic acid] | < 0.5 µM | > 30 µM
N[C@@H](c1cc(Cl)c(Cl)cc1O)C1CCN(C(=O)C2CNC(=O)OC2)CC1 (stereo partly drawn) [Compound 279, 5-[4-[(R)-amino(4,5-dichloro-2-hydroxyphenyl)methyl]piperidine-1-carbonyl]-1,3-oxazinan-2-one trifluoroacetic acid] | < 0.5 µM | > 30 µM
NC(c1cc(Cl)c(Cl)cc1O)C1(F)CCNCC1 (stereo not drawn) [Compound 59, 2-[amino(4-fluoropiperidin-4-yl)methyl]-4,5-dichlorophenol Trifluoroacetic Acid] | < 10 µM | < 30 µM
CN1CC[C@H](C(=O)N2CCC([C@@H](N)c3cc(Cl)c(Cl)cc3O)CC2)C1 [Compound 106, (4-((R)-amino(4,5-dichloro-2-hydroxyphenyl)methyl)piperidin-1-yl)((S)-1-methylpyrrolidin-3-yl)methanone] | < 0.5 µM | > 30 µM
N[C@H](CO)C(=O)N1CCC([C@@H](N)c2cc(Cl)c(Cl)cc2O)CC1 [Compound 171, (2R)-2-amino-1-[4-[(R)-amino(4,5-dichloro-2-hydroxyphenyl)methyl]piperidin-1-yl]-3-hydroxypropan-1-one] | < 0.5 µM | > 30 µM
